Experimental findings from patent US7205301B2, “Microbiocidal N-phenyl-n-[4-(4-pyridyl)-2-pyrimidin-2-yl]-amine derivatives” (Syngenta Crop Protection, Inc., priority 2001, dated 2007) are described below.

What all share (format): in vivo
Experiment [1] relates to Pyrenophora teres (Helminthosorium). Put plainly: Example B-10: effect against Pyrenophora teres (Helminthosorium) / barley (net blotch on barley). Particulars: 48 h, 0.02% active substance, spray, barley cv. Regina, inoculated two days after application, assessed after 2 days incubation, read-out: control of the fungal infection. Here is the method:
Effect Against Pyrenophora teres (Helminthosorium)/Barley (Net Blotch on Barley) 1 week old barley plants cv. Regina are treated with a formulated test compound (0.02% active substance) in a spray chamber. Two days. after application barley plants are inoculated by spraying a spore suspension (3×10^4 conidia/ml) on the test plants. After an incubation period of 2 days at +20° C. and 95% r.h. the disease incidence is assessed.

In experiment [2] the test system is Botrytis cinerea. Nature of the experiment: Example B-7: Botrytis cinerea / grape (Botrytis on grapes). Particulars: 72 h, 0.02% active substance, spray, grape seedlings cv. Gutedel, inoculated two days after application, assessed after 3 days incubation, read-out: control of the fungal infection. Here is the method: Botrytis cinerea/Grape (Botrytis on Grapes) 5 week old grape seedlings cv. Gutedel are treated with the formulated test compound (0.02% active substance) in a spray chamber. Two days after application grape plants are inoculated by spraying a spore suspension (1.5×10^5 conidia/ml) on the test plants. After an incubation period of 3 days at +21° C. and 95% r. h. in a greenhouse the disease incidence is assessed.

The subject of experiment [3] is Septoria nodorum. Put plainly: Example B-12: effect against Septoria nodorum / wheat (Septoria leaf spot on wheat). Particulars: Parastagonospora nodorum, 192 h; 0.02% active substance, spray; wheat cv. Arina; inoculated one day after application; assessed 8 days after inoculation; read-out: control of the fungal infection. Here is the method:
Effect Against Septoria nodorum/Wheat (Septoria Leaf Spot on Wheat) 1 week old wheat plants cv. Arina are treated with a formulated test compound (0.02% active substance) in a spray chamber. One day after application wheat plants are inoculated by spraying a spore suspension (6×10^5 conidia/ml) on the test plants. After an incubation period of 1 day at +22° C. and 95% r.h. plants are kept for 7 days at +22° C. and 60% r.h. in a greenhouse. The disease incidence is assessed 8 days after inoculation.

In experiment [4] the test system is Botrytis cinerea. Nature of the experiment: Example B-8: effect against Botrytis cinerea / tomato (Botrytis on tomatoes). Particulars: 96 h, 0.02% active substance, spray, tomato cv. Roter Gnom, inoculated two days after application, assessed after 4 days incubation, read-out: control of the fungal infection. Here is the method: Effect Against Botrytis cinerea/Tomato (Botrytis on Tomatoes) 4 week old tomato plants cv. Roter Gnom are treated with the formulated test compound 0.02% active substance) in a spray chamber. Two days after application tomato plants are inoculated by spraying a spore suspension (1×10^5 conidia/ml) on the test plants. After an incubation period of 4 days at +20° C. and 95% r. h. in a greenhouse the disease incidence is assessed.

For `Cc1nn(-c2cc(-c3ccnc(Nc4cccc(Cl)c4)n3)ccn2)c(C)c1C` [3.017/028, (3-Chloro-phenyl)-{4-[2-(3,4,5-trimethyl-pyrazol-1-yl)-pyridin-4-yl]-pyrimidin-2-yl}-amine], in experiment [1], the pest or weed control at 0.02 % strength is above 70%.
`Cc1cc(=O)n(-c2cc(-c3ccnc(Nc4cccc(Cl)c4)n3)ccn2)n1C` [2.03/028, 2-{4-[2-(3-Chloro-phenylamino)-pyrimidin-4-yl]-pyridin-2-yl}-1,5-dimethyl-1,2-dihydro-pyrazol-3-one]: the pest or weed control at 0.02 % strength in experiment [2], in experiment [3] and in experiment [1] was above 70% each time.
Regarding `COCc1c(C)c(=O)n(-c2cc(-c3ccnc(Nc4cccc(Cl)c4)n3)ccn2)n1C` [2.09/028, 2-{4-[2-(3-Chloro-phenylamino)-pyrimidin-4-yl]-pyridin-2-yl}-5-methoxymethyl-1,4-dimethyl-1,2-dihydro-pyrazol-3-one], the pest or weed control at 0.02 % strength in experiment [2], in experiment [3] and in experiment [1] was above 70% in each case.
For the compound `CCn1c(C)c(C)c(=O)n1-c1cc(-c2ccnc(Nc3cccc(Cl)c3)c2)ccn1` [2.06/028, 2-{4-[2-(3-Chloro-phenylamino)-pyridin-4-yl]-pyridin-2-yl}-1-ethyl-4,5-dimethyl-1,2-dihydro-pyrazol-3-one], the pest or weed control at 0.02 % strength in experiment [3] and in experiment [4] was above 70% in each case.
For the compound `COCc1cc(=O)n(-c2cc(-c3ccnc(Nc4cccc(Cl)c4)n3)ccn2)n1C` [2.011/028, 2-{4-[2-(3-Chloro-phenylamino)-pyrimidin-4-yl]-pyridin-2-yl}-5-methoxymethyl-1-methyl-1,2-dihydro-pyrazol-3-one], in experiment [1], the pest or weed control at 0.02 % strength was above 70%.
`COCc1cc(OC)n(-c2cc(-c3ccnc(Nc4cccc(Cl)c4)n3)ccn2)n1` [3.014/028, (3-Chloro-phenyl)-{4-[2-(5-methoxy-3-methoxymethyl-pyrazol-1-yl)-pyridin-4-yl]-pyrimidin-2-yl}-amine]: the pest or weed control at 0.02 % strength in experiment [2] and in experiment [1] was above 70% in each case.
Consider `Cc1c(C=O)c(=O)n(-c2cc(-c3ccnc(Nc4cccc(Cl)c4)n3)ccn2)n1C` [2.04/028, 2-{4-[2-(3-Chloro-phenylamino)-pyrimidin-4-yl]-pyridin-2-yl}-1,5-dimethyl-3-oxo-2,3-dihydro-1H-pyrazole-4-carbaldehyde], for which the pest or weed control at 0.02 % strength in experiment [3] is above 70%.
Turning to `CCC1(C)C(=O)N(c2cc(-c3ccnc(Nc4cccc(Cl)c4)n3)ccn2)N=C1C` (stereo not shown) [1.03/028, 2-{4-[2-(3-Chloro-phenylamino)-pyrimidin-4-yl]-pyridin-2-yl}-4-ethyl-4,5-dimethyl-2,4-dihydro-pyrazol-3-one], the pest or weed control at 0.02 % strength in experiment [2], in experiment [3] and in experiment [1] was above 70% in each case.
For `CC1=NN(c2cc(-c3ccnc(Nc4cccc(Cl)c4)n3)ccn2)C(=S)C1(C)C` [1.06/028, 2-{4-[2-(3-Chloro-phenylamino)-pyrimidin-4-yl]-pyridin-2-yl}-4,4,5-trimethyl-2,4-dihydro-pyrazole-3-thione], the pest or weed control at 0.02 % strength in experiment [2], in experiment [3], in experiment [4] and in experiment [1] was above 70% throughout.
For the compound `COCC1=NN(c2cc(-c3ccnc(Nc4cccc(Cl)c4)n3)ccn2)C(=O)C1(C)C` [1.08/028, 2-{4-[2-(3-Chloro-phenylamino)-pyrimidin-4-yl]-pyridin-2-yl}-5-methoxymethyl-4,4-dimethyl-2,4-dihydro-pyrazol-3-one], the pest or weed control at 0.02 % strength in experiment [1] is above 70%.
On to `CC1=NN(c2cc(-c3ccnc(Nc4cccc(Cl)c4)n3)ccn2)C(=O)C12CC2` [1.04/028, 5-{4-[2-(3-Chloro-phenylamino)-pyrimidin-4-yl]-pyridin-2-yl}-7-methyl-5,6-diaza-spiro[2.4]hept-6-en-4-one], for which the pest or weed control at 0.02 % strength in experiment [2], in experiment [4] and in experiment [1] was above 70% each time.
As to `COc1cc(C)nn1-c1cc(-c2ccnc(Nc3cccc(Cl)c3)n2)ccn1` [3.01/028, (3-Chloro-phenyl)-{4-[2-(5-methoxy-3-methyl-pyrazol-1-yl)-pyridin-4-yl]-pyrimidin-2-yl}-amine], the pest or weed control at 0.02 % strength in experiment [3], in experiment [4] and in experiment [1] was above 70% throughout.
As to `Cc1cn(C)n(-c2cc(-c3ccnc(Nc4cccc(Cl)c4)c3)ccn2)c1=O` [2.05/028, 2-{4-[2-(3-Chloro-phenylamino)-pyridin-4-yl]-pyridin-2-yl}-1,4-dimethyl-1,2-dihydro-pyrazol-3-one], the pest or weed control at 0.02 % strength in experiment [2], in experiment [3], in experiment [4] and in experiment [1] was above 70% in each case.
As to `COCc1nn(-c2cc(-c3ccnc(Nc4cccc(Cl)c4)n3)ccn2)c(OC)c1C` [3.013/028, (3-Chloro-phenyl)-{4-[2-(5-methoxy-3-methoxymethyl-4-methyl-pyrazol-1-yl)-pyridin-4-yl]-pyrimidin-2-yl}-amine], the pest or weed control at 0.02 % strength in experiment [2] and in experiment [1] was above 70% throughout.
Regarding `COCN(c1cccc(Cl)c1)c1nccc(-c2ccnc(-n3c(=O)cc(C)n3C)c2)n1` [2.08/048, 2-(4-{2-[(3-Chloro-phenyl)-methoxymethyl-amino]-pyrimidin-4-yl}-pyridin-2-yl)-1,5-dimethyl-1,2-dihydro-pyrazol-3-one], the pest or weed control at 0.02 % strength in experiment [2], in experiment [4] and in experiment [1] was above 70% throughout.
`COc1c(C)cnn1-c1cc(-c2ccnc(Nc3cccc(Cl)c3)n2)ccn1` [3.012/028, (3-Chloro-phenyl)-{4-[2-(5-methoxy-4-methyl-pyrazol-1-yl)-pyridin-4-yl]-pyrimidin-2-yl}-amine]: the pest or weed control at 0.02 % strength in experiment [2], in experiment [3] and in experiment [1] was above 70% in each case.
In the case of `Cc1c(C)n(C)n(-c2cc(-c3ccnc(Nc4cccc(Cl)c4)n3)ccn2)c1=O` [2.02/028, 2-{4-[2-(3-Chloro-phenylamino)-pyrimidin-4-yl]-pyridin-2-yl}-1,4,5-trimethyl-1,2-dihydro-pyrazol-3-one], the pest or weed control at 0.02 % strength in experiment [3], in experiment [4] and in experiment [1] was above 70% in each case.
In the case of `CC1(C)C=NN(c2cc(-c3ccnc(Nc4cccc(Cl)c4)n3)ccn2)C1=O` [1.07/028, 2-{4-[2-(3-Chloro-phenylamino)-pyrimidin-4-yl]-pyridin-2-yl}-4,4-dimethyl-2,4-dihydro-pyrazol-3-one], the pest or weed control at 0.02 % strength in experiment [2], in experiment [3] and in experiment [1] was above 70% in each case.
Regarding `CC1=NN(c2cc(-c3ccnc(Nc4cccc(Cl)c4)n3)ccn2)C(=O)C1(C)C` [1.01/028, 2-{4-[2-(3-Chloro-phenylamino)-pyrimidin-4-yl]-pyridin-2-yl}-4,4,5-trimethyl-2,4-dihydro-pyrazol-3-one], the pest or weed control at 0.02 % strength in experiment [2], in experiment [3], in experiment [4] and in experiment [1] was above 70% each time.
